# Test results from publication PMC8395767, “Worsening of the Toxic Effects of (±)Cis-4,4′-DMAR Following Its Co-Administration with (±)Trans-4,4′-DMAR: Neuro-Behavioural, Physiological, Immunohistochemical and Metabolic Studies in Mice” (International Journal of Molecular Sciences, 2021).
# “And” between values parts separate entries of the source, which are not always exact repeats. Equal entries are not always repeated. Marks after values point to notes of the source that are not given here.
# What was measured:
# mice [1] = assay: Convulsions (observation); type: in vivo; conditions: n=6 mice
# Protocol: (§1) The effects of (±)cis-4,4′-DMAR, (±)trans-4,4′-DMAR and their co-administration were investigated by a protocol widely used in studies of “safety pharmacology” for the preclinical characterization of new molecules in rodents. This protocol includes a series of observational behavioural tests carried out in a consecutive manner that monitor the animal responses up to 5 h after compound injections. In the present study, we reported the observation of physiological (sweating, salivation, core temperature) and neuro-behavioural (detection of psychomotor agitation, spontaneous and stimulated aggressiveness, convulsions) changes occurring in mice after injection of (±)cis-4,4′-DMAR, (±)trans-4,4′-DMAR and their co-administration. Before pharmacological treatment the mouse was placed on a square plate (30 cm× 30 cm) raised from the ground (20 cm) and left free to move on the plate for 10 min (habituation period). The animal was then injected with the vehicle, substances alone ((±)cis-4,4′-DMAR or (±)trans-4,4′-DMAR) or in cis + trans co-administration and placed on the plate. From this moment, the recording time of the physiological and neuro-behavioural responses started, and these were detected in 5-min sessions.
# (§2) After the first 5 min, the animal was removed from the plate; the body core temperature was then measured, and the aggression tests were performed. The 5-min observation period was repeated at 15–30–60–90–120–180–240–300. Psychomotor agitation in the mouse was not simply related to an increase in spontaneous locomotion itself, but by an “unusual hyperactivity” which was characterised by rapid and sudden horizontal displacements in all directions, sustained turning behaviour, involuntary falls from the high plate during the evaluation of the tests, stereotyped movements and rearing activity. Mouse sweating and salivation were reported only if present or not. The core temperature was determined using a probe (1 mm diameter) that was gently inserted after lubrication with liquid Vaseline into the rectum of the mouse (to about 2 cm) and left in position until the temperature stabilised (about 10 s). The probe was connected to a digital thermometer. Spontaneous aggressive response was measured based on the number of times a mouse bit a grey cloth put in front of its snout. During the test, each mouse was free to move within the cage. In the case of stimulated aggressiveness, each mouse was manually restrained and held in a supine position following which an object was brought near the mouth. For both spontaneous and stimulated aggressive behaviour tests, a grey cloth was placed in front of the nose of each mouse 10 consecutive times (score 0/10 not aggressive, score 10/10 very aggressive). Convulsions were defined as a loss of righting reflexes for at least 5 s, combined with the presence of body tremors and clonic or tonic limb movements. Deaths caused by 4-4’-DMAR injection occurring during the observation period (5 h) were also reported as frequency (%) and time of death (min). Experiments were conducted inside the LARP (Centralised Preclinical Research Laboratory, University of Ferrara, Ferrara, Italy) in a thermo-stated (temperature 20–22 °C, humidity about 45–55%) and light controlled (about 150 lux) room, in which there was a background noise of about 40 ± 4 dB. The experiments, conducted in blind by trained observers working together in pairs, were videotaped and eventually analysed off-line by a different trained operator. The experiments were performed between 8:30 a.m. and 2:00 p.m.
# (§3) Sweating and salivation were expressed as frequency (e.g., % of animals that developed symptoms); psychomotor agitation was expressed as frequency (% of animals) and duration (total time in mins). Core temperature values were expressed as the difference between control temperature (before injection) and temperature following drug administration (Δ°C). […]
# mice [2] = assay: Lethality during the observation period; type: in vivo; conditions: n=6 mice
# Protocol: as §1, §2, §3
# frontal cortex = assay: Histology of brain (haematoxylin/eosin); type: in vivo, mice; conditions: 30 mg/kg, compared to controls
# Description: Following the acute death or the sacrifice of the animals (after 5-h observation period by dislocation of the spine), brains were taken. These were fixed in 4% buffered formalin and then sampled and incorporated into the paraffin (Leica ASP300 processor, Histoline TEC2900 incorporator; Leica Microsystems Srl, Buccinasco, Milano, Italy). Subsequently, the cut (performed with the Leica HistoCore autocut microtome; Leica Microsystems Srl, Buccinasco, Milano, Italy) was designed to create sections with a thickness of 5 µm for each sample.
# For histological investigations, the sections were stained with haematoxylin/eosin and then observed under optical microscope (Nikon Eclipse E90i; Nikon, Roma, Italy).
# mice [3] = assay: Spontaneous and stimulated aggressiveness (bites of a grey cloth); type: in vivo
# Protocol: as §1, §2, §3
# mice [4] = assay: Psychomotor agitation (observational behavioural test); type: in vivo
# Protocol: as §1, §2, §3
# mice [5] = assay: Physiological and neuro-behavioural responses, all parameters (safety pharmacology protocol); type: in vivo
# Protocol: The effects of (±)cis-4,4′-DMAR, (±)trans-4,4′-DMAR and their co-administration were investigated by a protocol widely used in studies of “safety pharmacology” for the preclinical characterization of new molecules in rodents. This protocol includes a series of observational behavioural tests carried out in a consecutive manner that monitor the animal responses up to 5 h after compound injections. […] From this moment, the recording time of the physiological and neuro-behavioural responses started, and these were detected in 5-min sessions.
# After the first 5 min, the animal was removed from the plate; the body core temperature was then measured, and the aggression tests were performed. […] The core temperature was determined using a probe (1 mm diameter) that was gently inserted after lubrication with liquid Vaseline into the rectum of the mouse (to about 2 cm) and left in position until the temperature stabilised (about 10 s). […] Spontaneous aggressive response was measured based on the number of times a mouse bit a grey cloth put in front of its snout. […] The experiments, conducted in blind by trained observers working together in pairs, were videotaped and eventually analysed off-line by a different trained operator. […]
# [6] = 10 mg/kg i.p., n=4 mice (animals of the urine excretion study)
structure (smiles),measurement,setting,value
"Cc1ccc(C2OC(N)=NC2C)cc1 (stereo not drawn) [cis-4,4’-DMAR, 4-methyl-5-(4-methylphenyl)-4,5-dihydrooxazol-2-amine]",Convulsion Duration of each episode,mice [1]; 30 mg/kg i.p.,4.86 ± 1.26 s
same,Convulsion Episodes (n°),mice [1]; 30 mg/kg i.p.,3.5 ± 0.5 n°
same,Convulsion Frequency % (n° of mice),mice [1]; 30 mg/kg i.p.,50% (3)
same,Convulsion Latency of first episode,mice [1]; 30 mg/kg i.p.,10.5 ± 1.5 s
same,Convulsion Frequency % (n° of mice),"mice [1]; 30 mg/kg i.p., listed as (±)cis-4,4′-DMAR",50%
same,Convulsion Duration of each episode,mice [1]; 60 mg/kg i.p.,16.14 ± 6.2 s
same,Convulsion Duration of each episode (sec),mice [1]; 60 mg/kg i.p.,16.14 ± 3.2 ^d sec
same,Convulsion Episodes (n°),mice [1]; 60 mg/kg i.p.,2.0 ± 0.41 ^d n° and 2.0 ± 0.41 n°
same,Convulsion Frequency % (n° of mice),mice [1]; 60 mg/kg i.p.,100% (6)
same,Convulsion Latency of first episode,mice [1]; 60 mg/kg i.p.,8.25 ± 1.1 s
same,Convulsion Frequency % (n° of mice),"mice [1]; 60 mg/kg i.p., listed as (±)cis-4,4′-DMAR",100%
same,Lethality Frequency % (n° of mice),mice [2]; 30 mg/kg i.p.,50% (3)
same,Lethality Surviving mice % (n° of mice),mice [2]; 30 mg/kg i.p.,50% (3)
same,Lethality Time of death,mice [2]; 30 mg/kg i.p.,59.3 ± 2.3 min
same,Lethality Frequency % (n° of mice),mice [2]; 60 mg/kg i.p.,100% (6)
same,Lethality Surviving mice % (n° of mice),mice [2]; 60 mg/kg i.p.,0% (0)
same,Lethality Time of death,mice [2]; 60 mg/kg i.p.,31.9 ± 5.6 min
same,Lethality Time of death (min),mice [2]; 60 mg/kg i.p.,31.9 ± 5.6 ^d min
same,"Histology of the frontal cortex (edema, vacuolization areas)",frontal cortex,mild edema
same,Aggressiveness Stimulated Frequency % (n° of mice),mice [3]; [6],100% (4)
same,Aggressiveness Stimulated Score (n° of bites),mice [3]; [6],5 ± 0.23 n° of bites
same,Aggressiveness Stimulated Frequency % (n° of mice),"mice [3]; 10 mg/kg i.p., n=6 mice",100% (6)
same,Aggressiveness Stimulated Score (n° of bites),"mice [3]; 10 mg/kg i.p., n=6 mice",6 ± 0.23 n° of bites
same,Aggressiveness Stimulated Frequency % (n° of mice),"mice [3]; 30 mg/kg i.p., n=6 mice",100% (6)
same,Aggressiveness Stimulated Score (n° of bites),"mice [3]; 30 mg/kg i.p., n=6 mice",10 ± 0.23 ^b n° of bites
same,Spontaneous aggressiveness,"mice [3]; mice, i.p., 60 mg/kg could not be tested",not associated with increased levels
same,Psychomotor agitation Frequency % (n° of mice),"mice [4]; 1 mg/kg i.p., n=6 mice",ineffective
same,Psychomotor agitation Duration,"mice [4]; 3 mg/kg i.p., n=6 mice",54.2 ± 10.30 min
same,Psychomotor agitation Frequency % (n° of mice),"mice [4]; 3 mg/kg i.p., n=6 mice",100% (6)
same,Psychomotor agitation Latency,"mice [4]; 3 mg/kg i.p., n=6 mice",61.2 ± 6.30 min
same,"Psychomotor agitation, start of effect","mice [4]; 10 mg/kg alone, mice",about thirty
same,Psychomotor agitation Duration,mice [4]; [6],125.0 ± 10.12 min
same,Psychomotor agitation Frequency % (n° of mice),mice [4]; [6],100% (4)
same,Psychomotor agitation Latency,mice [4]; [6],26.4 ± 6.25 min
same,Psychomotor agitation Duration,"mice [4]; 10 mg/kg i.p., n=6 mice",121.0 ± 12.35 min
same,Psychomotor agitation Duration (min),"mice [4]; 10 mg/kg i.p., n=6 mice",121.0 ± 12.35 ^a min
same,Psychomotor agitation Frequency % (n° of mice),"mice [4]; 10 mg/kg i.p., n=6 mice",100% (6)
same,Psychomotor agitation Latency,"mice [4]; 10 mg/kg i.p., n=6 mice",28.2 ± 7.20 min
same,Psychomotor agitation Latency (min),"mice [4]; 10 mg/kg i.p., n=6 mice",28.2 ± 7.20 ^a min
same,Psychomotor agitation Frequency % (n° of mice),"mice [4]; 10 mg/kg i.p., n=6 mice, listed as (±)cis-4,4′-DMAR",100%
same,Psychomotor agitation Duration (min),"mice [4]; 30 mg/kg i.p., n=6 mice",235.1 ± 15.25 ^ab min
same,Psychomotor agitation Frequency % (n° of mice),"mice [4]; 30 mg/kg i.p., n=6 mice",100% (6)
same,Psychomotor agitation Latency (min),"mice [4]; 30 mg/kg i.p., n=6 mice",3.2 ± 0.25 ^ab min
same,Psychomotor agitation Duration (min),"mice [4]; 60 mg/kg i.p., n=6 mice",280.1 ± 12.35 ^ab min
same,Psychomotor agitation Frequency % (n° of mice),"mice [4]; 60 mg/kg i.p., n=6 mice",100% (6)
same,Psychomotor agitation Latency,"mice [4]; 60 mg/kg i.p., n=6 mice",2.2 ± 0.15 min
same,Psychomotor agitation Latency (min),"mice [4]; 60 mg/kg i.p., n=6 mice",2.2 ± 0.15 ^ab min
same,"Psychomotor agitation, dose range in which the effect was significant","mice [4]; i.p., mice, tested 0.1–60 mg/kg",3 to 60 mg/kg
"Cc1ccc(C2OC(N)=NC2C)cc1 (stereo not drawn) [trans-4,4’-DMAR, 4-methyl-5-(4-methylphenyl)-4,5-dihydrooxazol-2-amine]",Physiological and neuro-behavioural changes,"mice [5]; 30 and 60 mg/kg, systemic administration",did not induce any physiological and neuro-behavioural changes
same,"Physiological and neuro-behavioural parameters, all parameters studied",mice [5]; lower doses of 0.1 and 1 mg/kg,inactive
